Tests used:
Type in all cases: cell-based
[1] = tested on: synovial sarcoma cell lines (SYO1, Yamato, HS-SY-II, and ASKA); assay: Cell growth (confluency, crystal violet, colony imaging), synovial sarcoma cell lines, Example 2; settings: 1 μM or indicated concentrations, day 11 to 23
Method: (§1) Cells were treated with DMSO or the BRD9 degrader, Compound 1, at indicated concentrations, and proliferation was monitored from day 7 to day 14 by measuring confluency overtime using an IncuCyte live cell analysis system (FIG. 5). Growth medium and compounds were refreshed every 3-4 days.
(§2) Cells were seeded into 12-well plates and treated with DMSO, 1 μM BRD9 inhibitor, Compound 2 (also known as BI-7273, see Martin et al, J Med Chem. 59(10):4462-4475 (2016); see structure of compound 2 below), or 1 μM BRD9 degrader, Compound 1.
(§3) The number of cells was optimized for each cell line. Growth medium and compounds were refreshed every 3-5 days. SYO1, Yamato, A549, 293T and HS-SY-II cells were fixed and stained at day 11. ASKA cells were fixed and stained at day 23. Staining was done by incubation with crystal violet solution (0.5 g Crystal Violet, 27 ml 37% Formaldehyde, 100 mL 10×PBS, 10 mL Methanol, 863 dH20 to 1 L) for 30 min followed by 3× washes with water and drying the plates for at least 24 h at room temperature. Subsequently plates were scanned on an Odyssey CLx Imaging system (FIG. 6).
(§4) Cells were seeded into 96-well ultra-low cluster plate (Costar, #7007) in 200 μL complete media and treated at day 2 with DMSO, Staurosporin, or BRD9 degrader, Compound 1, at indicated doses (FIG. 3C). Media and compounds were changed every 5 d and cell colonies were imaged at day 14.

[2] = tested on: non-synovial control cancer cell lines (293T, A549, G401); assay: Cell growth (confluency, crystal violet, colony imaging), non-synovial control lines, Example 2; settings: 1 μM or indicated concentrations
Method: as §1, §2, §3, §4

[3] = tested on: synovial sarcoma cell lines (SYO1, HS-SY-II, and ASKA); assay: Crystal violet cell growth, synovial sarcoma cell lines, Example 3; settings: for inhibition of the growth of the cells: SYO1, HS-SY-II, ASKA, treated daily, stained by day 14
Method: (§5) Procedure: Cells were seeded into 6-well or 12-well plates and were treated daily with a BRD9 degrader (Compound 1), a bromo-domain BRD9 binder (Compound 2), E3 ligase binder (lenalidomide), DMSO, or staurosporin (positive control for cell killing), at indicated concentrations. The number of cells was optimized for each cell line. Growth media was refreshed every 5 days. By day 14, medium was removed, cells were washed with PBS, and stained using 500 μL of 0.005% (w/v) crystal violet solution in 25% (v/v) methanol for at least 1 hour at room temperature. Subsequently plates were scanned on an Odyssey CLx Imaging system.

[4] = tested on: non-synovial control cancer cell lines (RD, HCT116, and Calu6); assay: Crystal violet cell growth, non-synovial control lines, Example 3; settings: treated daily, stained by day 14
Method: as §5

SYO1 cells [5] = assay: Cell cycle analysis (Click-iT Plus EdU flow cytometry); settings: 200 nM or 1 μM, 8 or 13 days, compared to DMSO and lenalidomide
Method: (§6) Procedure: SYO1 cells were treated for 8 or 13 days with DMSO, a BRD9 degrader (Compound 1) at 200 nM or 1 μM, or an E3 ligase binder (lenalidomide) at 200 nM. Compounds were refreshed every 5 days. Cell cycle analysis was performed using the Click-iT™ Plus EdU Flow Cytometry Assay (Invitrogen). The apoptosis assay was performed using the Annexin V-FITC Apoptosis Detection Kit (Sigma A9210). Assays were performed according to the manufacturer's protocol.

SYO1 cells [6] = assay: Apoptosis assay (Annexin V-FITC); settings: 200 nM or 1 μM, 8 days, compared to DMSO controls
Method: as §6

[7] = biological target: T1, Nanoluciferase-BRD9 fusion protein (3×FLAG-NLuc-BRD9) (Homo sapiens, UniProt Q9H8M2); assay: SYO1 BRD9 NanoLuc degradation assay; settings: SYO-1 cells expressing 3×FLAG-NLuc-BRD9, 6 hours, top dose 1 μM; read-out: SYO1 BRD9-NanoLuc degradation IC50
T1 construct: expressed in transfected cells
T1 sequence (Q9H8M2 1-597): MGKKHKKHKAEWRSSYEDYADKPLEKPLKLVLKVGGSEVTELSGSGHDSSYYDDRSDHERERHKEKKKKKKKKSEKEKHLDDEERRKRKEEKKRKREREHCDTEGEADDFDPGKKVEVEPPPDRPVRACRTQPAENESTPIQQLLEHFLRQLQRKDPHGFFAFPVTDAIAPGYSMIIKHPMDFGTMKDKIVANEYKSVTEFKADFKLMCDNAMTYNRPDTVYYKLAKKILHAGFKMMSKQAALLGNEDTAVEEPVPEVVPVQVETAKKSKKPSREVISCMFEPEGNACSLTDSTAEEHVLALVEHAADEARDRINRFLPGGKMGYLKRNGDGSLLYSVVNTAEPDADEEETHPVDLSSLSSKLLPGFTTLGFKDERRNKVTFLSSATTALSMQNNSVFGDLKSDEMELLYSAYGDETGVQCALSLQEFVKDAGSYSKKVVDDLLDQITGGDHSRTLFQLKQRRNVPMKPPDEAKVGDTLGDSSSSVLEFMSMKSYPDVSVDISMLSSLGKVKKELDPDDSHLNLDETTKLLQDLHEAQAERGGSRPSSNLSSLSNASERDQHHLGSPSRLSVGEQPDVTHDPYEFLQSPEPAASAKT
Method: Procedure: A stable SYO-1 cell line expressing 3×FLAG-NLuc-BRD9 was generated. On day 0 cells were seeded in 30 μL media into each well of 384-well cell culture plates. The seeding density was 8000 cells/well. On day 1, cells were treated with 30 nL DMSO or 30 nL of 3-fold serially DMSO-diluted compounds (10 points in duplicates with 1 μM as final top dose). Subsequently plates were incubated for 6 hours in a standard tissue culture incubator and equilibrated at room temperature for 15 minutes. Nanoluciferase activity was measured by adding 15 μL of freshly prepared Nano-Glo Luciferase Assay Reagent (Promega N1130), shaking the plates for 10 minutes and reading the bioluminescence using an EnVision reader.
Results: The Inhibition % was calculated using the following formula: % Inhibition=100×(LumHC−LumSample)/(LumHC−LumLC). DMSO treated cells are employed as High Control (HC) and 1 μM of a known BRD9 degrader standard treated cells are employed as Low Control (LC).

SMILES	DC50 [7] [nM]	inhibition of the growth of the cells [1]	inhibition of the growth of the cells [2]	inhibition of the growth of the cells [3]	growth inhibition compared with the other treatments ([3]; all synovial cell lines, vs Compound 2 and lenalidomide)	inhibition of the growth of the cells [4]	numbers of cells in the S-phase of the cell cycle (SYO1 cells [5])	numbers of early- and late-apoptotic cells (SYO1 cells [6])
COc1cc(-c2cn(C)c(=O)c3cnccc23)cc(OC)c1CN(C)CC(=O)NCCOCCOCCNc1cccc2c1C(=O)N(C1CCC(=O)NC1=O)C2=O (centres unmarked) [Compound 1, dBRD9]	–	results in inhibition of the growth of the cells	does not result in inhibition of the growth	resulted in inhibition of the growth of the cells	most significant growth inhibition in all synovial cell lines	did not result in inhibition of the growth	reduced numbers of cells in the S-phase of the cell cycle	increased numbers of early- and late-apoptotic cells
COc1cc(-c2cn(C)c(=O)c3cnccc23)cc(OC)c1CN(C)C [Compound 2, BI-7273]	–	results in inhibition of the growth of the cells	does not result in inhibition of the growth	resulted in inhibition of the growth of the cells	–	did not result in inhibition of the growth	–	–
COc1cc(C2=CN(C)C(=O)N(C)C2)cc(OC)c1CN1CCC(CCN2CCN(c3ccc4c(c3)C(=O)N(C3CCC(=O)NC3=O)C4)CC2)CC1 (centres unmarked) [Compound D1, 3-(6-[4-[2-(1-[[4-(1,3-dimethyl-2-oxo-4H-pyrimidin-5-yl)-2,6-dimethoxyphenyl]methyl]piperidin-4-yl)ethyl]piperazin-1-yl]-1-oxo-3H-isoindol-2-yl)piperidine-2,6-dione]	< 10	–	–	–	–	–	–	–

Now from value to molecule, other results behind:

DC50 [7] [nM]	SMILES	inhibition of the growth of the cells [1]	inhibition of the growth of the cells [2]	inhibition of the growth of the cells [3]	growth inhibition compared with the other treatments ([3]; all synovial cell lines, vs Compound 2 and lenalidomide)	inhibition of the growth of the cells [4]	numbers of cells in the S-phase of the cell cycle (SYO1 cells [5])	numbers of early- and late-apoptotic cells (SYO1 cells [6])
< 10	COc1cc(C2=CN(C)C(=O)N(C)C2)cc(OC)c1CN1CCC(CCN2CCN(c3ccc4c(c3)CN(C3CCC(=O)NC3=O)C4=O)CC2)CC1 (centres unmarked) [Compound D2, 3-(5-[4-[2-(1-[[4-(1,3-dimethyl-2-oxo-4H-pyrimidin-5-yl)-2,6-dimethoxyphenyl]methyl]piperidin-4-yl)ethyl]piperazin-1-yl]-1-oxo-3H-isoindol-2-yl)piperidine-2,6-dione]	–	–	–	–	–	–	–
< 10	COc1cc(C2=CN(C)C(=O)N(C)C2)cc(OC)c1CN1CCN(CCC2CCN(c3ccc4c(c3)CN(C3CCC(=O)NC3=O)C4=O)CC2)CC1 (centres unmarked) [Compound D3, 3-(5-[4-[2-(4-[[4-(1,3-dimethyl-2-oxo-4H-pyrimidin-5-yl)-2,6-dimethoxyphenyl]methyl]piperazin-1-yl)ethyl]piperidin-1-yl]-1-oxo-3H-isoindol-2-yl)piperidine-2,6-dione Formic Acid]	–	–	–	–	–	–	–

From US12590079B2, “Compounds and uses thereof” (FOGHORN THERAPEUTICS INC., priority 2019, dated 2026)
